These compounds were tested against SHP2 (Homo sapiens (Human), UniProt Q06124) (assay: SHP2 allosteric inhibition assay (DiFMUP substrate, bisphos-IRS1 peptide activation)). Conditions: 0.33 nM SHP2, 0.5 μM bisphos-IRS1 peptide, 100 uM DiFMUP, room temperature.
Format: biochemical
Method: At the basal state, SHP2 is auto-inhibited and access of substrates to the catalytic site is blocked by the […] interactions between the SH2 domains and the PTP domain. When bis-tyrosyl-phosphorylated peptides bind to SH2 domain of SHP2, the PTP domain becomes available for substrate recognition and reaction catalysis and SHP2 is allosterically activated. SHP2 catalytic activity can be measured using a fluorogenic artificial substrate DiFMUP.
The phosphatase reactions were carried out at room temperature in 384-well black polystyrene plates (Greiner Bio-One, Cat #784076) using assay buffers containing 60 mM HEPES, pH 7.2, 75 mM NaCl, 75 mM KCl, 1 mM EDTA, 0.05% P-20, and 5 mM DTT.
0.33 nM of SHP2 was co-incubated with of 0.5 μM of bisphos-IRS 1 peptide (sequence: H2N-LN(pY)IDLDLV(dPEG8)LST(pY)ASINFQK-amide) and various concentrations of compounds for 30-60 min at room temperature. Then the reaction was initiated by addition of the surrogate substrate DiFMUP (Invitrogen, Cat #D6567, 100 uM final).
The real-time conversion of DiFMUP to DiFMU (6,8-difluoro-7-hydroxyl-4-methyl-coumarin) was measured every 5 min for 30 min using a microplate reader (CLARIOstar, BMG Labtech) with excitation and emission wavelengths of 340 nm and 450 nm, respectively. Initial reaction rates were determined by linear fitting of the data and the inhibitor dose response curves were analyzed using normalized IC50 regression curve fitting with control-based normalization.

| SMILES | IC50 [nM] | Shp2 IC50(nM) |
| --- | --- | --- |
| C[C@@H]1OCC2(CCN(c3ncc(Sc4ccnc5c4OC[C@@H]4C[C@H](OC(N)=O)CN54)nc3CO)CC2)[C@@H]1N [Compound 22, (6aS,8S)-4-((5-((3S,4S)-4-amino-3-methyl-2-oxa-8-azaspiro[4.5]decan-8-yl)-6-(hydroxymethyl)pyrazin-2-yl)thio)-6a,7,8,9-tetrahydro-6H-pyrido[3,2-b]pyrrolo[1,2-d]-[1,4]oxazin-8-yl carbamate] | 6 |  |
| C[C@@H]1OCC2(CCN(c3ncc(Sc4ccnc5c4OC[C@@H]4C[C@@H](OC(N)=O)CN54)nc3CO)CC2)[C@@H]1N [Compound 23, (6aS,8R)-4-((5-((3 S,4S)-4-amino-3-methyl-2-oxa-8-azaspiro[4.5]decan-8-yl)-6-(hydroxymethyl)pyrazin-2-yl)thio)-6a,7,8,9-tetrahydro-6H-pyrido[3,2-b]pyrrolo[1,2-d][1,4]oxazin-8-yl Carbamate] | 8 |  |
| C[C@@H]1OCC2(CCN(c3ncc(Sc4ccnc5c4OC[C@@H]4C[C@H](n6cccn6)CN54)nc3CO)CC2)[C@@H]1N [Compound 24, (6-(((6aS,8S)-8-(1H-pyrazol-1-yl)-6a,7,8,9-tetrahydro-6H-pyrido[3,2-b]-pyrrolo[1,2-d][1,4]oxazin-4-yl)thio)-3-((3 S,4S)-4-amino-3-methyl-2-oxa-8-azaspiro[4.5]decan-8-yl)pyrazin-2-yl)methanol] | 10 |  |
| C[C@@H]1OCC2(CCN(c3ncc(Sc4ccnc5c4OC[C@@H]4C[C@@H](n6cccn6)CN54)nc3CO)CC2)[C@@H]1N [Compound 25, (6-(((6aS,8R)-8-(1H-pyrazol-1-yl)-6a,7,8,9-tetrahydro-6H-pyrido[3,2-b]-pyrrolo[1,2-d][1,4]oxazin-4-yl)thio)-3-((3 S,4S)-4-amino-3-methyl-2-oxa-8-azaspiro[4.5]decan-8-yl)pyrazin-2-yl)methanol] | 11 |  |
| C[C@@H]1OCC2(CCN(c3ncc(Sc4ccnc5c4OC[C@H]4COCCN54)nc3CO)CC2)[C@@H]1N [Compound 26, (3-((3S,4S)-4-amino-3-methyl-2-oxa-8-azaspiro[4.5]decan-8-yl)-6-(((R)-6a,7,9,10-tetrahydro-6H-[1,4]oxazino[4,3-d]pyrido[3,2-b][1,4]oxazin-4-yl)thio)pyrazin-2-yl)methanol] |  | one of 26 and 27 is 10 and the other is 8 |
| C[C@@H]1OCC2(CCN(c3ncc(Sc4ccnc5c4OC[C@@H]4COCCN54)nc3CO)CC2)[C@@H]1N [Compound 27, (3-((3S,4S)-4-amino-3-methyl-2-oxa-8-azaspiro[4.5]decan-8-yl)-6-(((S)-6a,7,9,10-tetrahydro-6H-[1,4]oxazino[4,3-d]pyrido[3,2-b][1,4]oxazin-4-yl)thio)pyrazin-2-yl)methanol] |  | one of 26 and 27 is 10 and the other is 8 |
| C[C@@H]1OCC2(CCN(c3ncc(Sc4ccnc5c4OCC4CS(=O)(=O)CCN54)nc3CO)CC2)[C@@H]1N (stereo partly drawn) [Compound 28, 4-((5-((3S,4S)-4-amino-3-methyl-2-oxa-8-azaspiro[4.5]decan-8-yl)-6-(hydroxymethyl)pyrazin-2-yl)thio)-6a,7,9,10-tetrahydro-6H-pyrido[3,2-b][1,4]thiazino[4,3-d][1,4]oxazine 8,8-dioxide] | 13 |  |
| COCCOC[C@H]1C[C@H]2COc3c(Sc4cnc(N5CCC6(CC5)CO[C@@H](C)[C@H]6N)c(CO)n4)ccnc3N2C1 [Compound 32, (3-((3S,4S)-4-amino-3-methyl-2-oxa-8-azaspiro[4.5]decan-8-yl)-6-(((6aS,8S)-8-((2-methoxyethoxy)methyl)-6a,7,8,9-tetrahydro-6H-pyrido[3,2-b]pyrrolo[1,2-d][1,4]oxazin-4-yl)thio)pyrazin-2-yl)methanol] | 4 |  |
| C[C@@H]1OCC2(CCN(c3ncc(Sc4cc(N)nc5c4OC[C@@H]4CCCN54)nc3CO)CC2)[C@@H]1N [Compound 35, formic acid; (3-((3S,4S)-4-amino-3-methyl-2-oxa-8-azaspiro[4.5]decan-8-yl)-6-(((S)-2-amino-6a,7,8,9-tetrahydro-6H-pyrido[3,2-b]pyrrolo[1,2-d][1,4]oxazin-4-yl)thio)pyrazin-2-yl)methanol] | 18 |  |
| COC[C@H]1C[C@H]2COc3c(Sc4cnc(N5CCC6(CC5)Cc5ncccc5[C@H]6N)c(CO)n4)ccnc3N2C1 [Compound 36, (3-((S)-5-amino-5,7-dihydrospiro[cyclopenta[b]pyridine-6,4′-piperidin]-1′-yl)-6-(((6aS,8S)-8-(methoxymethyl)-6a,7,8,9-tetrahydro-6H-pyrido[3,2-b]pyrrolo[1,2-d][1,4]oxazin-4-yl)thio)pyrazin-2-yl)methanol] |  | One of 36 and 37 is 2.7 and the other is 4.2 |
| COC[C@@H]1C[C@H]2COc3c(Sc4cnc(N5CCC6(CC5)Cc5ncccc5[C@H]6N)c(CO)n4)ccnc3N2C1 [Compound 37, (3-((S)-5-amino-5,7-dihydrospiro[cyclopenta[b]pyridine-6,4′-piperidin]-1′-yl)-6-(((6aS,8R)-8-(methoxymethyl)-6a,7,8,9-tetrahydro-6H-pyrido[3,2-b]pyrrolo[1,2-d][1,4]oxazin-4-yl)thio)pyrazin-2-yl)methanol] |  | One of 36 and 37 is 2.7 and the other is 4.2 |

More lines, main results first:

| IC50 [nM] | SMILES | Shp2 IC50(nM) |
| --- | --- | --- |
| 3.6 | COC[C@H]1C[C@H]2COc3c(Sc4cnc(N5CCC6(CC5)CO[C@@H](C)[C@H]6N)c(CO)n4)ccnc3N2C1 [Compound 29, (3-((3S,4S)-4-amino-3-methyl-2-oxa-8-azaspiro[4.5]decan-8-yl)-6-(((6aS,8S)-8-(methoxymethyl)-6a,7,8,9-tetrahydro-6H-pyrido[3,2-b]pyrrolo[1,2-d][1,4]oxazin-4-yl)thio)pyrazin-2-yl)methanol] |  |
| 3.8 | COC[C@@H]1C[C@H]2COc3c(Sc4cnc(N5CCC6(CC5)CO[C@@H](C)[C@H]6N)c(CO)n4)ccnc3N2C1 [Compound 30, (3-((3S,4S)-4-amino-3-methyl-2-oxa-8-azaspiro[4.5]decan-8-yl)-6-(((6aS,8R)-8-(methoxymethyl)-6a,7,8,9-tetrahydro-6H-pyrido[3,2-b]pyrrolo[1,2-d][1,4]oxazin-4-yl)thio)pyrazin-2-yl)methanol] |  |
| 4.2 | COCOC[C@H]1C[C@H]2COc3c(Sc4cnc(N5CCC6(CC5)CO[C@@H](C)[C@H]6N)c(CO)n4)ccnc3N2C1 [Compound 31, (3-((3S,4S)-4-amino-3-methyl-2-oxa-8-azaspiro[4.5]decan-8-yl)-6-(((6aS,8S)-8-((methoxymethoxy)methyl)-6a,7,8,9-tetrahydro-6H-pyrido[3,2-b]pyrrolo[1,2-d][1,4]oxazin-4-yl)thio)pyrazin-2-yl)methanol] |  |
| 2.3 | C[C@@H]1OCC2(CCN(c3ncc(Sc4ccnc5c4OC[C@@H]4C[C@H](COCC6CC6)CN54)nc3CO)CC2)[C@@H]1N [Compound 33, (3-((3S,4S)-4-amino-3-methyl-2-oxa-8-azaspiro[4.5]decan-8-yl)-6-(((6aS,8S)-8-((cyclopropylmethoxy)methyl)-6a,7,8,9-tetrahydro-6H-pyrido[3,2-b]pyrrolo[1,2-d][1,4]oxazin-4-yl)thio)pyrazin-2-yl)methanol] |  |
| 6.2 | C[C@@H]1OCC2(CCN(c3ncc(Sc4ccnc5c4OC[C@@H]4C[C@H](COCC6COC6)CN54)nc3CO)CC2)[C@@H]1N [Compound 34, (3-((3S,4S)-4-amino-3-methyl-2-oxa-8-azaspiro[4.5]decan-8-yl)-6-(((6aS,8S)-8-((oxetan-3-ylmethoxy)methyl)-6a,7,8,9-tetrahydro-6H-pyrido[3,2-b]pyrrolo[1,2-d][1,4]oxazin-4-yl)thio)pyrazin-2-yl)methanol] |  |
| 5.7 | COC[C@H]1C[C@H]2COc3c(Sc4cnc(N5CCC6(CC5)COC5(CCC5)[C@H]6N)c(CO)n4)ccnc3N2C1 [Compound 38, (3-((S)-5-amino-13-oxa-9-azadispiro[3.1.5^6.2^4]tridecan-9-yl)-6-(((6aS,8S)-8-(methoxymethyl)-6a,7,8,9-tetrahydro-6H-pyrido[3,2-b]pyrrolo[1,2-d][1,4]oxazin-4-yl)thio)pyrazin-2-yl)methanol] |  |
| 7 | COCOC[C@H]1C[C@H]2COc3c(Sc4cnc(N5CCC6(CC5)COC5(CCC5)[C@H]6N)c(CO)n4)ccnc3N2C1 [Compound 39, (3-((S)-5-amino-13-oxa-9-azadispiro[3.1.5^6.2^4]tridecan-9-yl)-6-(((6aS,8S)-8-((methoxymethoxy)methyl)-6a,7,8,9-tetrahydro-6H-pyrido[3,2-b]pyrrolo[1,2-d][1,4]oxazin-4-yl)thio)pyrazin-2-yl)methanol] |  |
| 5.9 | COCOCOC[C@H]1C[C@H]2COc3c(Sc4cnc(N5CCC6(CC5)CO[C@@H](C)[C@H]6N)c(CO)n4)ccnc3N2C1 [Compound 40, (3-((3 S,4S)-4-Amino-3-methyl-2-oxa-8-azaspiro[4.5]decan-8-yl)-6-(((6aS,8S)-8-(((methoxymethoxy)methoxy)methyl)-6a,7,8,9-tetrahydro-6H-pyrido[3,2-b]pyrrolo[1,2-d][1,4]oxazin-4-yl)thio)pyrazin-2-yl)methanol] |  |
| 5 | C[C@@H]1OCC2(CCN(c3ncc(Sc4ccnc5c4OC[C@@H]4C[C@H](CO)CN54)nc3CO)CC2)[C@@H]1N [Compound 41, (3-((3S,4S)-4-amino-3-methyl-2-oxa-8-azaspiro[4.5]decan-8-yl)-6-(((6aS,8S)-8-(hydroxymethyl)-6a,7,8,9-tetrahydro-6H-pyrido[3,2-b]pyrrolo[1,2-d][1,4]oxazin-4-yl)thio)pyrazin-2-yl)methanol] |  |

From US10894797B2, “Fused tricyclic ring derivatives as SRC homology-2 phosphatase inhibitors” (Nikang Therapuetics, Inc., priority 2018, dated 2021)
